Data taken from patent US12252697B2 (priority 2019, dated 2025).
Entries after “also recorded” stand apart in the source; their conditions may differ.

How the values were obtained:
[1] = test system: Sisymbrium orientale PB-R1 plants; details: PB-R1 plants vs Roseworthy S plants; cited from earlier work
[2] = test system: S. orientale RILs root growth; test: root growth assay, S. orientale inbred lines; type: in vivo, Sisymbrium orientale; details: S. orientale RILs homozygous for IAA2Δ27 vs IAA2 wild-type allele
Method: (§1) All root assays were performed on 120 mm square petri dishes with half MS and 1% phytoagar. […] For the mustard root assay, ten seedlings (3 days after germination) of F5 RILs of each phenotype were transferred to an auxin treated or control plate, the root tip of each plant was marked and root growth was evaluated seven days after treatment. For Arabidopsis, sterilized seeds were planted directly on the treated petri dish and incubated at 4° C. for seed […] and moved to the growth chamber after 3 days. T3 homozygous plants of 35::SoIAA2WT, 35::SoIAA2Δ27, the T-DNA insertion line on AtIAA2 and the empty T-DNA from PFGC5941 plasmid as control were used in this study. Twelve plants per construct ware used in total and roots were measured three weeks after the plates were moved to the growth conditions. For all root assays, seeds were gas sterilized for 6 hours using bleach and hydrochloric acid. The plants were grown under controlled conditions of 180 uMol m^−2 light intensity, relative humidity of 60%, 16 hours of day and day/night temperatures of 22/18° C.

Arabidopsis root growth = test: root growth assay, transformed Arabidopsis; type: in vivo, Arabidopsis thaliana; details: for root growth tolerance compared with null vector or wild type gene: Arabidopsis transformed with mutant S. orientale IAA2Δ27; for root growth response: Arabidopsis transformed with the null vector
Method: as §1

TIR1/auxin/IAA complex = test: surface plasmon resonance (SPR) binding assay; design: species or system Sisymbrium orientale; details: mutant IAA2Δ27 peptide vs IAA2 wild-type; compound 50 μM
From the text: In short, this assay measures the binding of auxin and IAA to the receptor protein TIR1 and their unbinding.
Surface plasmon resonance (SPR) experiments were done according to published protocols. TIR1/AFBS was expressed in insect cell culture using a recombinant baculovirus. The construct contained sequences for three affinity tags, namely 6 His, maltose-binding protein (MBP) and FLAG. Initial purification using the His tag was followed by clean-up using FLAG chromatography, the purified protein was used for SPR assays by passing it over a streptavidin chip loaded with biotinylated IAA2/IAA7 degron peptides.
The SPR buffer was Hepes-buffered saline with 10 mM Hepes, 3 mM EDTA, 150 mM NaCl and 0.05% Tween 20. Compounds to be tested were premixed with the protein to a final 50 μM concentration. Binding experiments were run at a flow rate of 30 μl min^−1 using 2.0 min of injection time and 4.0 min of dissociation time. Data from a control channel (mIAA7) and from a buffer+DMSO-only run were subtracted from each sensogram following the standard double reference subtraction protocol.

IAA2 expression = IAA2 expression by Q-PCR after auxin treatment of seedlings; type: in vivo, Sisymbrium orientale; details: for increase of IAA2 expression compared to untreated plants and DMSO control: 2 hr exposure
Method: To study IAA2 expression under auxin treatments sterilized seeds from F5 RILs for each phenotype were planted in half MS and grown until expanded cotyledon stage (size was about 2 cm from root to cotyledon tips). […] After exposure plants were collected into 2 ml centrifuge tubes and frozen in liquid nitrogen. RNA was extracted using Direct-zol RNA Microprep from Zymo research, DNAase treatment was done using DNaseI from Invitogen—ThermoFisher and cDNA was generated using iScript™ according to each manufacture protocol. Q-PCR (CFX Connect™ Real-Time PCR Detection System thermal cycler, BioRad, Hercules, Calif.) was used to determine IAA2 expression. The qPCR reaction contained 12.5 μl of SYBR Green (PerfeCTa SYBR Green FastMix), 1 μl each of forward and reverse primers (5 μM), and 1 uL of cDNA for a final reaction volume of […] parameters were 50° C. for 2 min, 95° C. for 10 min, and 40 cycles of 95° C. for 30 s and 60° C. for 1 min. Relative expression quantification was calculated by Expression=2^ΔCt, where ΔCT=CT(average of Actin2 and Cyclophilin)−CT(IAA2). Each biological sample was run in two technical replicates.

[3] = test system: Arabidopsis thaliana (Col-0); test: 2,4-D spray of transformed Arabidopsis; type: in vivo; details: 200 g a.i. ha^-1
Method: Arabidopsis transformation was performed based on established protocols with modifications. IAA2 alleles were amplified by PCR from cDNA generated from RNA extracts of homozygous R and S F5 lines (cross A). RNA was extracted using Direct-zol RNA Miniprep Plus Kit (Zymo). cDNA synthesis was performed using oligo(dT)20 primers from SuperScript™ II Reverse Transcriptase (Invitrogen). Wild-type and mutant alleles were amplified by PCR using PrimeSTAR HS Premix (Takara), using primers linked with restriction enzyme sites for cloning. Purified PCR amplicons were ligated into the pGEM-T Easy Vector (Promega), transformed into E. coli, sequenced by Sanger sequencing, and digested using the restriction sites AscI and BamHI (New England BioLabs). The digested product was then ligated into the binary vector pFGC5941 and cloned into Agrobacterium tumefaciens (strain GV3101). For plant transformation, Agrobacterium 400 mL liquid cultures were incubated at 28 C overnight and after centrifugation, resuspended in a 300 mL transformation solution (5% sucrose and 0.02% Silwet L-77). Each allele of IAA2 was transformed into Arabidopsis thaliana (Col-0) by floral dip and grown to seed production.
For transformant selection, 40 mg of transformed seeds for each IAA2 allele were cleaned with bleach solution (12.5%) and plated at half MS selective media with Cefotaxime (200 mg/L) and glufosinate-ammonium (7.5 mg/L). After two weeks, positive transformants were transferred to a second selective plate with half MS, Cefotaxime (100 mg/L) and glufosinate-ammonium (5 mg/L). After selection, potential transformants were transferred to soil and grown until seed production. For T2 selection, 36 seeds were cleaned and grown on half MS and glufosinate-ammonium (5 mg/L) media. T3 homozygous plants containing just one copy of the T-DNA vector were selected and IAA2 expression was analyzed using the same primers from mustard expression assay (see below), AtCyclophilin and AtActin2 were used as normalization genes. […]

[4] = test system: S. orientale populations from Southern Australia; test: single-rate 2,4-D resistance screen of S. orientale populations; type: in vivo, Sisymbrium orientale; details: eight populations; 250 g ha^-1 2,4-D at 4-leaf stage; leaf curl 48 h, confirmed 21 days
Method: The presence of IAA2Δ27 in other 2,4-D resistant populations of S. orientale was also investigated. Seeds of S. orientale populations were germinated by sowing directly onto the soil surface of seedling trays containing standard potting mix. Once emerged, seedlings were transplanted into 9.5×8.5×9.5 cm punnet pots and grown outdoors at the Waite Campus, University of Adelaide, Australia. At the 4-leaf stage, plants were treated with a single rate of 250 g. a. ha^−1 2,4-D (2,4-D amine 650, FMC) to screen for resistance. Herbicide was applied using a laboratory moving boom pesticide applicator and applied at an equivalent of 109 L ha−1 of water at a pressure of 250 kPa and a speed of 1 m s−1 using Tee-Jet 001 nozzles (Tee-Jet 8001E; Spraying Systems Co., Wheaton, Ill.). Leaf curl was assessed 48 h after treatment, with any plants showing signs of leaf curl considered susceptible and tissue harvested, while the remaining plants were considered resistant and allowed to grow for a further 21 days to confirm resistance and tissue subsequently harvested.

[5] = test system: S. orientale F3 plants (cross B); test: progeny test segregation analysis, visual injury after 2,4-D spray; type: in vivo, Sisymbrium orientale; details: 200 gai ha^-1 2,4-D, 28 days after treatment
Method: A progeny test segregation analysis was performed on 219 F3 plants derived from self-pollination of a heterozygous F2 individual from cross B, identified via progeny test due to segregation of 2,4-D resistance in the F3 progeny. Plants were sprayed with 200 gai ha^−1 2,4-D at the 5 true leaf stage. Damage percentage was evaluated at 28 days after treatment. Leaf tissue was harvested and genomic DNA was extracted by CTAB. A KASP assay was performed with primers and methods as described above. To further test the co-segregation between the resistant phenotype and IAA2Δ27, nine each of R and S RILs from cross A and three each of R and S RILs from cross B were genotyped using the KASP assay. Two individuals were genotyped from each RIL.

[6] = Arabidopsis transformed with wild type S. orientale IAA2

Structure (SMILES)	fold more resistant compared to S plants [1] [fold]	root growth tolerance [2]	root growth tolerance compared with null vector or wild type gene (Arabidopsis root growth)	root growth response (Arabidopsis root growth)	association of the herbicide/IAA/TIR1 complex (Ka) (TIR1/auxin/IAA complex)	dissociation of the herbicide/IAA/TIR1 complex (Kd) (TIR1/auxin/IAA complex)	increase of IAA2 expression compared to untreated plants and DMSO control (IAA2 expression; R seedlings) [fold]	increase of IAA2 expression compared to untreated plants and DMSO control (IAA2 expression; S seedlings) [fold]	relative expression (RE) of IAA2 (IAA2 expression; treated resistant plants)	relative expression (RE) of IAA2 (IAA2 expression; treated susceptible plants)	other results
Cc1cc(Cl)ccc1OCC(=O)O [MCPA]	20	higher tolerance; also recorded: confers resistance	–	–	–	–	–	–	–	–	–
COc1c(Cl)ccc(Cl)c1C(=O)O [Dicamba]	–	–	higher tolerance; also recorded: confers resistance	susceptible to inhibition	slower association	more rapid dissociation; also recorded: faster	–	–	–	–	root growth response compared with the null vector (Arabidopsis root growth; [6]): slightly more tolerant
O=C(O)Cc1c[nH]c2ccccc12 [IAA, indoleacetic acid]	–	–	higher tolerance; also recorded: confers resistance	–	slower association	more rapid dissociation; also recorded: faster	9.5	7	0.62	1	–
COc1c(Cl)ccc(-c2nc(C(=O)OCc3ccccc3)c(Cl)c(N)c2F)c1F [Rinskor (florpyrauxifen-benzyl), florpyrauxifen-benzyl]	–	confers resistance	–	–	–	–	–	–	–	–	root growth tolerance ([2]; listed as fluorpyrauxifen-benzyl): higher tolerance
O=C(O)COc1ccc(Cl)cc1Cl [2,4-D, 2,4-dichlorophenoxyacetic acid]	22	–	higher tolerance; also recorded: confers resistance	susceptible to inhibition	slower association	more rapid dissociation; also recorded: faster	2.5	4	0.16	0.55	effect of treatment on IAA2 expression (FIG. 7) (IAA2 expression; S): increases IAA2 expression; response to herbicide treatment ([3]; Arabidopsis transformed with S. orientale IAA2Δ27): resistant; response to herbicide treatment [3, 6]: susceptible; also recorded: sensitive; response to herbicide treatment ([3]; wild type Arabidopsis): susceptible; also recorded: sensitive; populations identified as resistant [4]: four identified as resistant; average injury ([5]; heterozygous plants): 24%; injury ([5]; homozygous resistant plants): 12%; visual injury ([5]; sensitive plants homozygous for IAA2WT): 70%
O=C(O)c1nc(Cl)ccc1Cl [Clopyralid]	–	–	higher tolerance; also recorded: confers resistance	–	–	–	–	–	–	–	–
